# Assay results from patent publication US20260374769A1, “Crystalline Forms Of An Imidazopyridine Derivative” (Arisan Therapeutics Inc., priority 2023, published 2026).
# How the values were obtained:
# human CB1R = molecular target: T1, human CB1R (Homo sapiens, UniProt P21554); assay: CB1R Human Cannabinoid GPCR Cell Based Antagonist cAMP Assay (HTRF, CHO-K1 cells, CP55940 EC80); conditions: antagonist mode, CP55940 EC80, 20 uM forskolin, read-out: IC50 functional activity of CB1R
# T1 construct: expressed in transfected cells; host or cells: CHO-K1
# T1 sequence (P21554 whole entry): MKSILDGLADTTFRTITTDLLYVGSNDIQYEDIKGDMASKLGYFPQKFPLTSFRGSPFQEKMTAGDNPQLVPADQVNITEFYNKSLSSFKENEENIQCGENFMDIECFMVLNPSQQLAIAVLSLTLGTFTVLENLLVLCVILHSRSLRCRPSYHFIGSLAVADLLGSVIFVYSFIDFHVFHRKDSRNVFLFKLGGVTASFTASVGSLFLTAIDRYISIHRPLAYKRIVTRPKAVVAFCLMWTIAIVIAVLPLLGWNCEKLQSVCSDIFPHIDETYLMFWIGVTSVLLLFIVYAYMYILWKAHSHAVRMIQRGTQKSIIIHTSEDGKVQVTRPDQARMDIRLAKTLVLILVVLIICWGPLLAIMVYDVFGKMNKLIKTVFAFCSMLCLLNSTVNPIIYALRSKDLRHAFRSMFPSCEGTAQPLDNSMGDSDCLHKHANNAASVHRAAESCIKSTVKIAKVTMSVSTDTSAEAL
# Description: CB1R Human Cannabinoid GPCR Cell Based Antagonist cAMP Assay
# Evaluation of the potency (IC50) of Compound 1 for the human CB1R in stably transfected CHO-K1 cells was determined in a cAMP cell based assay using HTRF detection method. Cells were seeded in a total volume of 20 μL into white walled, 384-well microplates and incubated at 37 °C overnight prior to testing. Prior to testing cell plating media was exchanged with 10 μL of Assay buffer (HBSS+10 mM HEPES). Briefly, intermediate dilution of sample stocks was performed in assay buffer to generate a sample at 4× the final testing concentration. 5 μL of 4× sample was added to cells and incubated at 37 °C for 30 minutes. 5 μL of CP55940 at 4× the final EC80 concentration in 4× forskolin reagent (at 80 uM) was added and cells incubated for 37 °C for 30 minutes. The final concentration of forskolin in the assay was 20 uM. Final assay vehicle concentration was 1%. The results are expressed as a percent inhibition of CP55940 in antagonist mode.
# obese C57BL/6J DIO mice = assay: Mouse DIO Obesity Study (four weeks, oral once a day); type: in vivo; conditions: 4 weeks
# Description: To determine if Compound 1 might have anti-obesity activity through CB1R antagonism a four week in vivo study in obese C57BL/6J DIO mice was initiated to investigate weight gain, food intake and fasting blood glucose levels (see Table 62 for experimental design). A GMP lot of Compound 1 at different doses was evaluated and compared to DIO mice dosed with vehicle alone. The compound was formulated as a homogenous suspension with Vitamin-E-TPGS, PEG400, Glycerol, Methylcellulose, 10 mM Sodium Citrate buffer pH6 and water. Animals were orally gavaged once-a-day with either test article or vehicle for 4 weeks.
# rats = assay: 28-day GLP rat toxicity study; type: in vivo
# Source text: The same suspension formulation used in the mouse obesity model was used for the rat GLP toxicity study.
# [1] = Hygroscopicity and sorption by DVS; type: physicochemical
# Description: The hygroscopicity and the sorption properties of polymorphic Form A of Compound 1 were assessed using DVS.
# [2] = Approximate solubility at room temperature in various solvents; type: physicochemical
# [3] = Solubility in water and biorelevant media; type: physicochemical; conditions: room temperature
# [4] = Water activity experiments (IPA/H2O); type: physicochemical
# [5] = Slurry at room temperature (solid form after three days); type: physicochemical
# Description: Slurry experiments were conducted at room temperature in various solvent systems. […] After the suspension was stirred magnetically for three days at room temperature, the remaining solids were isolated for XRPD analysis (Table 14).
# [6] = Slurry at 50 °C (solid form after two days); type: physicochemical
# Description: Slurry experiments were conducted at 50 °C in various solvent systems. […] After the suspension was stirred magnetically for two days at 50 °C, the remaining solids were isolated for XRPD analysis (Table 15).
# [7] = Solid vapor diffusion (solid form after seven days at RT); type: physicochemical
# Description: Solid vapor diffusion experiments were conducted using various solvents. […] The 20-mL vial was then sealed with a cap and kept at RT for seven days allowing solvent vapor to interact with sample. The remaining solids were isolated for XRPD analysis (Table 16).
# [8] = Excipient compatibility study (4 weeks at 50 °C/75% RH); type: physicochemical
# Description: The mixtures were placed in open containers and stored at 50 °C and 75% Relative Humidity (RH) for 4 weeks.
# CB1R = conditions: cited from earlier work
smiles,measurement,setting,value
"Cc1cc2ncc(-c3ccc(OC(C)(C)C)cc3)n2cc1-c1ccc(OC(C)C)cc1 [Compound 1, 3-(4-(tert-butoxy)phenyl)-6-(4-isopropoxyphenyl)-7-methylimidazo[1,2-a]pyridine]",IC50,human CB1R,3.8 µM
same,food intake vs vehicle,obese C57BL/6J DIO mice; 30 mg/kg/day,significantly lower
same,body weight vs vehicle,obese C57BL/6J DIO mice; 10 and 30 mg/kg/day,significant decreases in body weight
same,fasting blood glucose vs vehicle,"obese C57BL/6J DIO mice; oral once-a-day, FIG. 16",no significant effect on fasting blood glucose
same,percent weight gain vs vehicle,"obese C57BL/6J DIO mice; oral once-a-day, group 4 and 5, FIG. 15",significant dose-dependent drop in percent weight gain
same,food intake vs vehicle,"obese C57BL/6J DIO mice; oral once-a-day, group 5, FIG. 15",significant reduced food intake
same,mean cholesterol vs vehicle,"rats; 28-day GLP rat toxicity study, FIG. 17",significant dose-dependent decreases in mean cholesterol
same,cholesterol levels,"rats; all doses tested including 10, 30 and 50 mg/kg/day, 28-day",significantly reduced
same,CNS effect (functional observational battery),rats; rat 28-day GLP toxicity study,no evidence of CNS effect
"Cc1cc2ncc(-c3ccc(OC(C)(C)C)cc3)n2cc1-c1ccc(OC(C)C)cc1 [Polymorphic Form A of Compound 1, 3-(4-(tert-butoxy)phenyl)-6-(4-isopropoxyphenyl)-7-methylimidazo[1,2-a]pyridine]",weight increase (DVS),[1]; 80% RH,~ 0.28%
same,weight increase (DVS),[1]; 95% RH,less than 0.5%
same,hygroscopicity,[1]; DVS,slightly hygroscopic
same,solubility,"[2]; organic solvent or mixture, 1-4-dioxane",> 60 mg/mL
same,solubility,"[2]; organic solvent or mixture, 1-Butanol",> 60 mg/mL
same,solubility,"[2]; organic solvent or mixture, 2-MeTHF",> 56 mg/mL
same,solubility,"[2]; organic solvent or mixture, 2 butanol",> 54 mg/mL
same,solubility,"[2]; organic solvent or mixture, Acetone",> 56 mg/mL
same,solubility,"[2]; organic solvent or mixture, Acetonitrile",28 to 56 mg/mL
same,solubility,"[2]; organic solvent or mixture, CPME",> 46 mg/mL
same,solubility,"[2]; organic solvent or mixture, DCM",> 48 mg/mL
same,solubility,"[2]; organic solvent or mixture, DMF",> 60 mg/mL
same,solubility,"[2]; organic solvent or mixture, DMSO",8 to 24 mg/mL
same,solubility,"[2]; organic solvent or mixture, EtOH",> 48 mg/mL
same,solubility,"[2]; organic solvent or mixture, IPAC",> 48 mg/mL
same,solubility,"[2]; organic solvent or mixture, Isopropanol",> 52 mg/mL
same,solubility,"[2]; organic solvent or mixture, MEK",> 52 mg/mL
same,solubility,"[2]; organic solvent or mixture, MIBK",> 50 mg/mL
same,solubility,"[2]; organic solvent or mixture, MTBE",28 to 56 mg/mL
same,solubility,"[2]; organic solvent or mixture, MeOH",> 48 mg/mL
same,solubility,"[2]; organic solvent or mixture, THF",> 50 mg/mL
same,solubility,"[2]; organic solvent or mixture, Toluene",> 46 mg/mL
same,solubility,"[2]; organic solvent or mixture, n-Heptane",2.8 to 9.3 mg/mL
same,solubility,"[2]; organic solvent or mixture, n-Propanol",> 52 mg/mL
same,solubility,"[2]; water, H2O",< 2.4 mg/mL
same,solubility at 24 h,"[3]; FaSSIF, pH 6.73",0.041 mg/mL
same,solubility at 24 h,"[3]; FeSSIF, pH 5.07",0.224 mg/mL
same,solubility at 24 h,"[3]; Simulated Gastric Fluid (SGF), pH 2.38",0.532 mg/mL
same,solubility at 24 h,"[3]; Water, pH 6.63",< 0.0125 mg/mL
same,Solid Form,[4]; H2O aw = 1,Form A
same,Solid Form,"[4]; IPA/H2O aw = 0.2, 982/18",Form A
same,Solid Form,"[4]; IPA/H2O aw = 0.4, 956/44",Form A + B
same,Solid Form,"[4]; IPA/H2O aw = 0.6, 919/81",Form C
same,Solid Form,"[4]; IPA/H2O aw = 0.8, 847/153",Form C
same,Solid Form,"[5]; RT, 1,4 Dioxane:H2O (3:7)",Form A
same,Solid Form,"[5]; RT, ACN",Form A
same,Solid Form,"[5]; RT, ACN:H2O (4:6)",Form A
same,Solid Form,"[5]; RT, DCM:n-Heptane (2:8)",Form A
same,Solid Form,"[5]; RT, DMF:H2O (3:7)",Form B
same,Solid Form,"[5]; RT, DMSO",Form A
same,Solid Form,"[5]; RT, DMSO:H2O (4:6)",Form B
same,Solid Form,"[5]; RT, EtOH:n-Heptane (2:8)",Form C
same,Solid Form,"[5]; RT, H2O",Form A
same,Solid Form,"[5]; RT, MEK:n-Heptane (2:8)",Form A
same,Solid Form,"[5]; RT, MTBE",Form A
same,Solid Form,"[5]; RT, MTBE:n-Heptane (3:7)",Form D
same,Solid Form,"[5]; RT, THF:n-Heptane (2:8)",Form A
same,Solid Form,"[5]; RT, n-Heptane",Form A
same,Solid Form,[6]; ACN,Form A
same,Solid Form,[6]; ACN:H2O (1:1),Form E
same,Solid Form,[6]; DMSO,Amorphous
same,Solid Form,[6]; DSMO:H2O (1:1),Amorphous
same,Solid Form,[6]; EtOH:H2O (1:1),Form E
same,Solid Form,[6]; H2O,Form A
same,Solid Form,[6]; H2O:Acetone (7:3),Form B
same,Solid Form,[6]; H2O:EtOH (6:4),"Form B, Low Crystalline"
same,Solid Form,[6]; H2O:MeOH (7:3),Form A
same,Solid Form,[6]; H2O:THF (7:3),Form A
same,Solid Form,[6]; H2O:n-Propanol (6:4),"Form B, Peak Missing at 2-"
same,Solid Form,[6]; MTBE,Form A
same,Solid Form,[6]; n-Heptane,Form A
same,Solid Form,"[6]; n-Heptane:1,4-dioxane (19:1)",Gel
same,Solid Form,[6]; n-Heptane:Acetone (19:1),Form A
same,Solid Form,[6]; n-Heptane:IPA (19:1),Form B
same,Solid Form,[6]; n-Heptane:Toluene (19:1),Form A
same,Solid Form,[7]; 2-MeTHF vapor,Gel
same,Solid Form,[7]; Acetone vapor,Form A
same,Solid Form,[7]; CPME vapor,Form D
same,Solid Form,[7]; EtOH vapor,Form F
same,Solid Form,[7]; IPA vapor,Form A
same,Solid Form,[7]; MEK vapor,Gel
same,Solid Form,[7]; MTBE vapor,Form A
same,Solid Form,[7]; Toluene vapor,Form A
same,Solid Form,[7]; n-Propanol vapor,"Form A, Low Crystalline"
same,excipient compatibility,[8],compatible with all excipients and blends in Table 22
same,Appearance,[8]; open containers,White granular powder.
same,degraded at 672 h,"[8]; open containers, read-out: Total Related Substances",0.3%
Cc1c(C(=O)NN2CCCCC2)nn(-c2ccc(Cl)cc2Cl)c1-c1ccc(Cl)cc1 [Rimonabant],"cardiometabolic parameters (waist circumference, hemoglobin A1c, HDL, plasma cholesterol, triglycerides)","CB1R; clinical trials, obese people",improved multiple cardiometabolic parameters
same,weight loss,"CB1R; clinical trials, obese people",weight loss in obese people
same,neuropsychiatric side-effects,CB1R; clinical use,withdrawn from clinical use due to its neuropsychiatric side-effects
